By IC50 is commonly meant the point on the concentration scale where inhibition reaches its midpoint. Broadly, the EC50 is the midpoint of the concentration-response curve. As usually defined, the CC50 is the concentration that lowers cell viability or growth by half. A high value points to better tolerance by the cells.

This is an account of results in paper PMC8672434 (Journal of the American Chemical Society, 2021).

Several values for one entry are separate records, joined by “and”; a condition that tells them apart may be missing. Equal entries are not always repeated. Where two headings read alike, the source gives them in different places. Bounds are passed on as bounds.

Data set [1] concerns the target T1, SARS-CoV-2 M^pro (Severe acute respiratory syndrome coronavirus 2, UniProt P0DTD1). As to the kind of experiment: Fast dilution experiment. It counts as biochemical. The conditions noted are these: 10 μM M^pro pre-incubated with 10 μM compound for 2 h at 30 °C, diluted 100-fold; compared with DMSO control.
In a further data set the target is cathepsin K (Homo sapiens, UniProt P43235). Description: Host protease selectivity, FRET-based enzymatic assay: cathepsin K. It counts as biochemical.
Chain of cathepsin K (P43235 115-329): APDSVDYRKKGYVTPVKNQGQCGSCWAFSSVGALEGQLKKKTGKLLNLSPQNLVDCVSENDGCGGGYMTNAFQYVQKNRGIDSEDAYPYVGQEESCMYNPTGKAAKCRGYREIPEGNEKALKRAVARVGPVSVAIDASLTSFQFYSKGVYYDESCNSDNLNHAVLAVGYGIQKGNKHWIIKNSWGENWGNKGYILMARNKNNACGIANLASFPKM
The next data set concerns the target cathepsin L (Homo sapiens, UniProt P07711). Description: Host protease selectivity, FRET-based enzymatic assay: cathepsin L. The conditions noted are these: for Inhibition of cathepsin L (in words): host protease selectivity. In kind it is biochemical.
For another data set, the system named is trypsin. Description: Host protease selectivity, FRET-based enzymatic assay: trypsin. In kind it is biochemical.
The target in a further data set is cathepsin B (Homo sapiens, UniProt P07858). Description: Host protease selectivity, FRET-based enzymatic assay: cathepsin B. It counts as biochemical.
The next data set addresses caspase-3 (Homo sapiens, UniProt P42574). Description: Host protease selectivity, FRET-based enzymatic assay: caspase-3. It counts as biochemical. The conditions noted are these: for Inhibition of caspase-3 (in words): host protease selectivity.
In data set [2] the test system is SARS-CoV-2. In kind it is cell-based. The conditions noted are these: read-out: Antiviral EC50 against SARS-CoV-2 in Vero E6 cells.
The target in a further data set is calpain I (Homo sapiens, UniProt P07384). As to the kind of experiment: Host protease selectivity, FRET-based enzymatic assay: calpain I. It counts as biochemical.
Chain of calpain I (P07384 whole entry): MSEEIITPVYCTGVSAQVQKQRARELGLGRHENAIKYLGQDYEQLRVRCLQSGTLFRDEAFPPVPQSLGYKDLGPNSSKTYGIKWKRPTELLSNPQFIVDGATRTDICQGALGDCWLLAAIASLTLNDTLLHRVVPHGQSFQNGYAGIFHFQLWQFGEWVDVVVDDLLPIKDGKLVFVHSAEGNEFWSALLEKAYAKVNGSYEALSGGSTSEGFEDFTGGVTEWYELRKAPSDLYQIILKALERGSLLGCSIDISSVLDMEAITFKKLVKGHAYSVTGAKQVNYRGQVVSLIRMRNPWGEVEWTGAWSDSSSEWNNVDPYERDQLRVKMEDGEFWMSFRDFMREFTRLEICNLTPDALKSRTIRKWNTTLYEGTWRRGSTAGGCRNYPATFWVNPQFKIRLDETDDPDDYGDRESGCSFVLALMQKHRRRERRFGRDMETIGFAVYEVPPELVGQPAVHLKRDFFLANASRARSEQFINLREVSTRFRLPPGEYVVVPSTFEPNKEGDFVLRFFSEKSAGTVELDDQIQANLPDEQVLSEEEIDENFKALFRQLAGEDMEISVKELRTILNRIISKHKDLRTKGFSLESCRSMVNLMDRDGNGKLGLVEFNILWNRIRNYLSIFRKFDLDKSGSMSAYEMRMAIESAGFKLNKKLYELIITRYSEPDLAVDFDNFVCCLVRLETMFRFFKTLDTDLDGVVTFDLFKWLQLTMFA
Chain of calpain I (P04632 whole entry, further chain): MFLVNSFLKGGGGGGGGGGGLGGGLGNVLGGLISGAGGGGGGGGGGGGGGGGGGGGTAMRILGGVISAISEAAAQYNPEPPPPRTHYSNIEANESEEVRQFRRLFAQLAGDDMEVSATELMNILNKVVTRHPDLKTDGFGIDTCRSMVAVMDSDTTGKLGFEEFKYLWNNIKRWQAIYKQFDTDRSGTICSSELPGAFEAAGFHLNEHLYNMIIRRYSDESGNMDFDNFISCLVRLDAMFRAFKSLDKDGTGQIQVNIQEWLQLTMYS
For data set [3], the target named is T1, SARS-CoV-2 M^pro. In kind it is cell-based. The conditions noted are these: read-out: FlipGFP M^pro assay EC50.
In data set [4] the target is T1, SARS-CoV-2 M^pro. In kind it is binding. Conditions: native mass spectrometry.
Data set [5] deals with T1, SARS-CoV-2 M^pro. In kind it is biochemical. Conditions: read-out: SARS-CoV-2 M^pro IC50.
Data set [6] deals with T1, SARS-CoV-2 M^pro. As to the kind of experiment: Thermal shift-binding assay. The conditions noted are these: result in words.
Data set [7] concerns SARS-CoV-2. In kind it is cell-based. Conditions: read-out: Antiviral EC50 against SARS-CoV-2 in Calu-3 cells.

Chain of cathepsin L (P07711 114-333 limits assumed): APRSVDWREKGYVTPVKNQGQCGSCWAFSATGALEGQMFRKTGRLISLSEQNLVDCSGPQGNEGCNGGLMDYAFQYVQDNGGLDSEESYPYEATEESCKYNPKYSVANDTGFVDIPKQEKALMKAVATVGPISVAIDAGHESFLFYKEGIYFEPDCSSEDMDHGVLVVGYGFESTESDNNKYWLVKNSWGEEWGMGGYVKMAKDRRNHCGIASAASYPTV
Chain of caspase-3 (P42574 29-175): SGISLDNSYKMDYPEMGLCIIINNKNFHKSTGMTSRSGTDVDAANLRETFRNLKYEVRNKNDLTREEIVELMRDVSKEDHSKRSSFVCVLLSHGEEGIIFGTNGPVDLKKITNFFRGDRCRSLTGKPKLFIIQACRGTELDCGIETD
Chain of caspase-3 (P42574 176-277): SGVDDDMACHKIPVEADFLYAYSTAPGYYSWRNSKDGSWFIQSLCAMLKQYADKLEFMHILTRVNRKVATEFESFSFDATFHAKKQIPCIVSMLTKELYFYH

As for `C[C@H](NC(=O)[C@@H](c1cccnc1)N(C(=O)c1ccco1)c1ccc(-c2ccccc2)cc1)c1ccccc1` [23R], the “Recovered enzymatic activity after 100-fold dilution” value on SARS-CoV-2 M^pro [1] is given as “nearly complete recovery of enzymatic activity”.

As for `CC(C)C[C@H](NC(=O)OCc1ccccc1)C(=O)N[C@@H](CC1CCNC1=O)C(O)S(=O)(=O)[O-].[Na+]` (stereo partly drawn) [GC-376, reference compound], at cathepsin K, the “Inhibition of cathepsin K (in words)” value is given as “potent inhibition”. Moreover, the “Inhibition of cathepsin L (in words)” value at cathepsin L is “potent inhibition”. The IC50 with trypsin (read-out: Trypsin IC50, FRET-based enzymatic assay) is […]; on caspase-3 (read-out: Caspase-3 IC50, FRET-based enzymatic assay), […]. For the same compound, on cathepsin B, the “Inhibition of cathepsin B (in words)” value is “potent inhibition”. Further, in the data set on SARS-CoV-2 [2], the EC50 is 1.51 µM. Further, at calpain I, the “Inhibition of calpain I (in words)” value is reported as “potent inhibition”.

In the case of `CC#CC(=O)N(c1ccc(-c2ccccc2)cc1)C(C(=O)N[C@@H](C)c1ccccc1)c1cccnc1` (stereo partly drawn) [Jun9-62-1], the half-maximal cytotoxic concentration (CC50) amounted to 18 µM in the data set on Vero E6 cells and 47.8 µM with Calu-3 cells.

Turning to `C[C@H](NC(=O)[C@@H](c1cccnc1)N(C(=O)C(Cl)Cl)c1ccc(-c2ccccc2)cc1)c1ccccc1` [Jun9-62-2R], the concentration for a half-maximal effect (EC50) at SARS-CoV-2 M^pro [3] amounted to 0.96 µM; in the data set with SARS-CoV-2 [2] it was 0.9 µM. For the same compound, on SARS-CoV-2 M^pro [4], the “Mass modification of M^pro (covalent adduct)” value (from here on “Mass modification of M^pro”) came to 482 Da. Moreover, the “Inhibition of cathepsin K (in words)” value on cathepsin K was “did not show potent inhibition”. In addition, at cathepsin L, the “Inhibition of cathepsin L (in words)” value was “did not show potent inhibition”. The “Inhibition of trypsin (in words)” value in the data set on trypsin was “did not show potent inhibition”. The “Inhibition of cathepsin B (in words)” value on cathepsin B is “did not show potent inhibition”. The “Inhibition of caspase-3 (in words)” value on caspase-3 was “did not show potent inhibition”. Besides, the “Inhibition of calpain I (in words)” value at calpain I was “did not show potent inhibition”.

As to `C[C@H](NC(=O)[C@H](c1cccnc1)N(C(=O)C(Cl)Cl)c1ccc(-c2ccccc2)cc1)c1ccccc1` [Jun9-62-2S], the IC50 on SARS-CoV-2 M^pro [5] was greater than 20 µM.

With `C[C@H](NC(=O)[C@@H](c1cccnc1)N(C(=O)C(Br)(Br)Br)c1ccc(-c2ccccc2)cc1)c1ccccc1` [Jun9-88-6R], the “Mass modification of M^pro” value on SARS-CoV-2 M^pro [4] was determined as 526 Da. Also, on cathepsin K, the “Inhibition of cathepsin K (in words)” value is recorded as “did not show potent inhibition”. Also, the “Tm shift of SARS-CoV-2 M^pro upon binding” value (“Tm shift” below) at SARS-CoV-2 M^pro [6] is on record as “stabilized”. Moreover, the “Inhibition of cathepsin L (in words)” value at cathepsin L is recorded as “did not show potent inhibition”. Besides, on cathepsin L (read-out: Cathepsin L IC50, FRET-based enzymatic assay), the half-inhibitory concentration (IC50) worked out at 7.37 µM. For the same compound, the 50% cytotoxic concentration (CC50) with Vero E6 cells stood at 5.48 µM. The “Inhibition of cathepsin B (in words)” value at cathepsin B is on record as “did not show potent inhibition”. In addition, the “Inhibition of caspase-3 (in words)” value on caspase-3 is given as “did not show potent inhibition”. In addition, the EC50 with SARS-CoV-2 [2] was found to be 0.58 µM. The “Inhibition of calpain I (in words)” value on calpain I is reported as “did not show potent inhibition”.

With `C[C@H](NC(=O)[C@H](c1cccnc1)N(C(=O)C(Br)(Br)Br)c1ccc(-c2ccccc2)cc1)c1ccccc1` [Jun9-88-6S], the midpoint of cytotoxicity in the data set on Vero E6 cells, the CC50, lay at 5.99 µM.

As to `C[C@H](NC(=O)[C@@H](c1cccnc1)N(C(=O)C(Br)Br)c1ccc(-c2ccccc2)cc1)c1ccccc1` [Jun9-89-2R], the “Mass modification of M^pro” value at SARS-CoV-2 M^pro [4] was found to be 526 Da. Besides, at SARS-CoV-2 M^pro [5] (FRET-based enzymatic assay), the IC50 was 0.08 µM. Further, the CC50 with Vero E6 cells was 8.94 µM.

For `C[C@H](NC(=O)[C@H](c1cccnc1)N(C(=O)C(Br)Br)c1ccc(-c2ccccc2)cc1)c1ccccc1` [Jun9-89-2S], the half-inhibitory concentration (IC50) at SARS-CoV-2 M^pro [5] (FRET-based enzymatic assay) is 2.44 µM. The compound further showed a CC50 with Vero E6 cells of 4.57 µM.

`C[C@H](NC(=O)C(c1cccnc1)N(C(=O)C(Cl)(Cl)Br)c1ccc(-c2ccccc2)cc1)c1ccccc1` (stereo partly drawn) [Jun9-89-3]: the CC50 in the data set with Vero E6 cells came out at 32.4 µM.

Take `C[C@H](NC(=O)[C@@H](c1cccnc1)N(C(=O)C(Cl)(Br)Br)c1ccc(-c2ccccc2)cc1)c1ccccc1` [Jun9-89-4R]: the “Mass modification of M^pro” value at SARS-CoV-2 M^pro [4] was 481 Da and 561 Da. In addition, the CC50 in the data set on Vero E6 cells was 8.41 µM.

`C[C@H](NC(=O)[C@@H](c1cccnc1)N(C(=O)C(Cl)Cl)c1ccc(-c2ccccc2)cc1)c1ccc(Br)cc1` [Jun9-90-3R]: the figures for the EC50 in the data set on SARS-CoV-2 [7] and in the data set with SARS-CoV-2 [2] were 2 µM and 2.07 µM, respectively. Also, the “Tm shift” value on SARS-CoV-2 M^pro [6] was “stabilized”.

As for `C[C@H](NC(=O)[C@H](c1cccnc1)N(C(=O)C(Cl)Cl)c1ccc(-c2ccccc2)cc1)c1ccc(Br)cc1` [Jun9-90-3S], the IC50 on SARS-CoV-2 M^pro [5] was greater than 20 µM.

Turning to `C[C@@H](CCc1ccccc1)NC(=O)[C@@H](c1cccnc1)N(C(=O)C(Cl)Cl)c1ccc(-c2ccccc2)cc1` [Jun9-90-4R], the “Tm shift” value on SARS-CoV-2 M^pro [6] is recorded as “stabilized”. Further, the concentration for a half-maximal effect (EC50) in the data set on SARS-CoV-2 [2] came out at 1.1 µM.
